# Values quoted from earlier work in PMC10878532, “Sperm Toolbox—A selection of small molecules to study human spermatozoa” (PLOS ONE, 2024).
# Where a name gives a salt, the structure may show the parent alone.
# Tested on: spermatozoa
# Parameters: method as in per compound as listed in column References of Table 1
# Conditions: summaries of reported effects; ref per compound as listed in Table 1; cited from earlier work
row,Structure (SMILES),Published Phenotype
1,Nc1nonc1C(=O)c1cccc(OCc2nc3ccccc3[nH]2)c1 [ASI-8],Blocks soluble adenyl cyclase (sAC)
2,COc1cc2nc(N(C)CCCNC(=O)C3CCCO3)nc(N)c2cc1OC (centres unmarked) [Alfuzosin],Interferes with ejaculation
3,CCCCC/C=C\C/C=C\C/C=C\C/C=C\CCCC(=O)NCCO [Anandamide],Reduces sperm motility
4,CC(=O)N1CCC(C(=O)N(CCCN2CCN(Cc3ccc(F)cc3)CC2)c2ccc(C)c(Cl)c2)CC1 [B07 hydrochloride],Reduction of sperm motility
5,CC1(C)CC=C(c2ccccc2)c2cc(/C=C/c3ccc(C(=O)O)cc3)ccc21 [BMS-189453],Interferes with spermatogenesis
6,Cn1c(=O)c2c(-c3ccccc3)n3c(c2n(C)c1=O)[C@H](c1ccc(Br)o1)Oc1ccc(C(=O)O)cc1-3 [BPO-27],CTFR inhibitor patent
7,Oc1c(Cl)cc(Cl)cc1Sc1cc(Cl)cc(Cl)c1O [Bithionol],Blocks sAC
8,O=C(O)c1ccc(/C=C2/SC(=S)N(c3cccc(C(F)(F)F)c3)C2=O)cc1 [CTFRinh-172],Blocks progesterone induced acrosome reaction; blocks sperm hyperactivation; blocks recombinant ZP3 induced acrosome reaction
9,CCOC(=O)CSc1nc(=O)c(NCC(=O)OC)n[nH]1 [Compound B4],Reduces sperm motility
10,OCCN(CCO)c1nc(N2CCCCC2)c2nc(N(CCO)CCO)nc(N3CCCCC3)c2n1 [Dipyridamole],Enhances sperm motility
11,CCN(CC)C(=S)SSC(=S)N(CC)CC [Disulfiram],immotile sperm; spermicidal
12,COc1ccc2nc([S@@+]([O-])Cc3ncc(C)c(OC)c3C)[nH]c2c1 [Esomeprazole],Reduces sperm motility
13,COC(=O)c1c(C)[nH]c(C)c1C(=O)c1ccccc1Cc1ccccc1 [FPL 64176],Modulates evoked Ca^2+ response
14,CC(C)C(C(=O)OC(C#N)c1cccc(Oc2ccccc2)c1)c1ccc(Cl)cc1 (centres unmarked) [Fenvalerate],Blocks progesterone induced acrosome reaction
15,C=C[C@@]1(C)CC(=O)[C@]2(O)[C@@]3(C)[C@@H](O)CCC(C)(C)[C@@H]3[C@H](O)[C@H](OC(C)=O)[C@@]2(C)O1 [Forskolin],Stimulates acrosome reaction
16,CN(C)CCCn1cc(C2=C(c3c[nH]c4ccccc34)C(=O)NC2=O)c2ccccc21 [GF 109203X],Blocks progesterone induced acrosome reaction; blocks progesterone induced Ca^2+ response
17,CCc1cc(Nc2nccc(-c3c(-c4ccc(OC)c(C(=O)Nc5c(F)cccc5F)c4)nc4ccccn34)n2)c(OC)cc1N1CCC(N2CCN(S(C)(=O)=O)CC2)CC1 [GSK1904529A],Inhibition of hyperactivation
18,COc1cc2ncn(-c3cc(OCc4ccccc4C(F)(F)F)c(C(N)=O)s3)c2cc1OC [GW 843682X],Enhances sperm motility
19,O=c1c(-c2ccc(O)cc2)coc2cc(O)cc(O)c12 [Genistein],Blocks progesterone induced acrosome reaction; blocks progesterone induced Ca^2+ response

row,Structure (SMILES),Published Phenotype
1,Cc1cc2c(C(C)C)c(O)c(O)c(C=O)c2c(O)c1-c1c(C)cc2c(C(C)C)c(O)c(O)c(C=O)c2c1O [Gossypol],Causes azoospermia
2,O=S(=O)(NCCNC/C=C/c1ccc(Br)cc1)c1cccc2cnccc12 [H 89 dihydrochloride],Evokes Ca^2+ signaling in sperm cells
3,O=C(c1cccs1)c1no[n+]([O-])c1C(=O)c1cccs1 [HC-056456],Blocks Ca^2+ and Na^+ entry; blocks onset of hyperactive motility
4,CO[C@H]1[C@@H](OC)C[C@H](C)[C@@H](OC)C2=CC(=O)C=C(NC(=O)/C(C)=C/C=C\[C@H](OC)[C@@H](OC(N)=O)/C(C)=C/[C@@H]1C)C2=O [Herbimycin a],Blocks progesterone induced acrosome reaction; blocks progesterone induced Ca^2+ response
5,Oc1c(Cl)cc(Cl)c(Cl)c1Cc1c(O)c(Cl)cc(Cl)c1Cl [Hexachlorophene],Reduces sperm motility; blocks sAC
6,CC(C)Cn1c(=O)n(C)c(=O)c2[nH]cnc21 [IBMX],Modulates capacitation
7,CC(C)Cn1cnc2c(N)nc3ccccc3c21 [Imiquimod],Reduction of sperm motility; only sperm with X chromosome
8,Cc1sc2c(c1C)C(c1ccc(Cl)cc1)=N[C@@H](CC(=O)OC(C)(C)C)c1nnc(C)n1-2 [JQ1],Interferes with spermatogenesis; reduces sperm count; reduces motility
9,COc1cc(SC)ccc1C(=O)N1CCC(Cc2ccccc2)CC1 [JX 401],Modulates Ca^2+ response
10,CCCCCCOC(=O)[C@]1(O)C[C@@H]2O[C@@]1(C)n1c3ccccc3c3c4c(c5c6ccccc6n2c5c31)C(=O)NC4 [KT 5720],Evokes Ca^2+ signaling in sperm
11,Nc1nc(Cl)cc(N(Cc2cccs2)C2CC2)n1 [LRE1],Prevents hyperactivation
12,CC(C)c1ccc2c(c1)CC[C@H]1[C@](C)(CN)CCC[C@]21C [Leelamine hydrochloride],Modulates P4 evoked Ca^2+ response
13,CCCCCCCCCCCCCCCCOCC(COCC(F)(F)F)OP(=O)(O)OC (centres unmarked) [MJ33],Prevents capacitation-associated tyrosine phosphorylation by PKA
14,COCC(=O)O[C@]1(CCN(C)CCCc2nc3ccccc3[nH]2)CCc2cc(F)ccc2[C@@H]1C(C)C [Mibefradil],Blocks progesterone induced Ca^2+ response
15,CCCCN1C[C@H](O)[C@@H](O)[C@H](O)[C@H]1CO [Miglustat],Interferes with spermatogenesis
16,CC(C)[C@H]1c2ccc(F)cc2CC[C@@]1(CCN(C)CCCc1nc2ccccc2[nH]1)OC(=O)C1CC1 [NNC 55–0396 dihydrochloride],Blocks ccl-20 induced Ca^2+ response; Modulates CatSper
17,N=C(N)c1ccc2cc(OC(=O)c3ccc(N=C(N)N)cc3)ccc2c1 [Nafamostat],Interferes with liquefaction; reduces sperm motility
18,O=C(Nc1ccc([N+](=O)[O-])cc1Cl)c1cc(Cl)ccc1O [Niclosamide],Shape abnormality
19,O=C(O)c1cccnc1Nc1cccc(C(F)(F)F)c1 [Niflumic acid],Blocks acrosome reaction induced by recombinant rhZP3

row,Structure (SMILES),Published Phenotype
1,Cc1ccc(S(=O)(=O)c2c(N)n(CC(O)c3ccc([N+](=O)[O-])cc3)c3nc4ccccc4nc23)cc1 (centres unmarked) [Oprea1_544341],Reduces sperm motility; role of glycolysis in sperm motility
2,C[C@@H]1O[C@@H](O[C@H]2C[C@@H](O)[C@]3(CO)[C@H]4[C@H](O)C[C@]5(C)[C@@H](C6=CC(=O)OC6)CC[C@]5(O)[C@@H]4CC[C@]3(O)C2)[C@H](O)[C@H](O)[C@H]1O [Ouabain],Reduces sperm motility
3,c1ccc2c(c1)SCc1c-2[nH]c2ccccc12 [PD 146176],Antagonizing negative effects of ROS on sperm function such as acrosome reaction
4,CN(c1ccccc1CNc1nc(Nc2ccc3c(c2)CC(=O)N3)ncc1C(F)(F)F)S(C)(=O)=O [PF 431396],Blocks capacitation
5,Cc1[nH]c(/C=C2\C(=O)Nc3ccc(S(=O)(=O)Cc4c(Cl)cccc4Cl)cc32)c(C)c1C(=O)N1CCC[C@@H]1CN1CCCC1 [Pha-665752],Modulates P4 evoked Ca^2+ response
6,c1cnc2c(c1)ccc1cccnc12 [Phenanthroline],Inhibit proteolytic activity of PSA
7,COC(=O)[C@]1(C)CC[C@]2(C)CC[C@]3(C)C4=CC=C5C(=CC(=O)C(O)=C5C)[C@]4(C)CC[C@@]3(C)[C@@H]2C1 [Pristimerin],Modulates sperm motility; reduces progesterone induced Ca^2+ response
8,CCOCc1nc2c(N)nc3ccccc3c2n1CC(C)(C)O [Resiquimod],Reduction of sperm motility; only sperm with X chromosome
9,[Na+].[Na+].[Na+].[O]=[V]([O-])([O-])[O-] [Sodium orthovanadate],Blocks progesterone induced acrosome reaction; blocks progesterone induced Ca^2+ response
10,CC(C)(O)c1ccn2c(-c3ccc(F)c(-c4ccc(F)cc4C#N)c3)cnc2c1F [TP 003],Enhances sperm motility
11,C=CC[C@@H]1/C=C(\C)C[C@H](C)C[C@H](OC)[C@H]2O[C@@](O)(C(=O)C(=O)N3CCCC[C@H]3C(=O)O[C@H](/C(C)=C/[C@@H]3CC[C@@H](O)[C@H](OC)C3)[C@H](C)[C@@H](O)CC1=O)[C@H](C)C[C@@H]2OC [Tacrolimus],Blocks progesterone induced acrosome reaction
12,COc1cn(-c2ccc(-n3cccn3)cc2F)nc(-c2ccnn2-c2ccccc2)c1=O [Tak-063],Enhances sperm motility
13,CCOc1ccccc1OCCN[C@H](C)Cc1ccc(OC)c(S(N)(=O)=O)c1 [Tamsulosin],Interferes with ejaculation
14,O=c1sn(-c2cccc3ccccc23)c(=O)n1Cc1ccccc1 [Tideglusib],Spermicidal; vaginal treatment
15,Nc1ccc(-c2ccc3ncc4ccc(=O)n(-c5cccc(C(F)(F)F)c5)c4c3c2)cn1 [Torin 2],Enhances sperm motility
16,COc1ccc(CCCN2CCC(COC(c3ccccc3)c3ccccc3)CC2)cc1 [UK 78282 hydrochloride],Modulates Ca^2+ response
17,O.O.O.OO.OO.[K+].[OH-].[V].c1cnc2c(c1)ccc1cccnc12 [bpV(phen)],Blocks progesterone induced acrosome reaction; blocks progesterone induced Ca^2+ response
18,CC(C)(C)c1ccc(S(=O)(=O)Nc2cnc3[nH]c(C(=O)N[C@H]4CCC[C@H]4O)c(-c4ccccc4)c3c2)cc1 [compound 68853496],Patent; sAC inhibitor
